Assay results: patent publication US10774064B2 (Cadent Therapeutics, Inc., priority 2016, dated 2020)

target: T1, small-conductance Ca2+-activated K+ channels (SK channels, subtype 2) (Homo sapiens, UniProt Q9H2S1); assay: whole-cell patch-clamp of ionic current through SK2 channels in HEK293 cells (SC100); assay type: cell-based; details: concentration that increases the basal current by 100%; HEK293 cells expressing SK2 channels
T1 construct: expressed in transfected cells; host or cells: HEK293
How it was run: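 SC100, the concentration doubling basal current (a 100% increase), was taken from SK2 currents recorded by whole-cell patch-clamp in SK2-expressing HEK293 cells.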

Row | SMILES | SC100
1 | Cc1cc(C)n(-c2cc(NC3CCN(C)C3=O)cc(NC3CCC(F)(F)CC3)n2)n1 (racemic) [Compound 135, 3-((2-((4,4-difluorocyclohexyl)amino)-6-(3,5-dimethyl-1H-pyrazol-1-yl)pyridin-4-yl)amino)-1-methylpyrrolidin-2-one] | + (+ means >1 uM)
2 | Cc1cc(C)n(-c2nc(NC3CCC(F)(F)CC3)cc(C3=CCCOC3)n2)n1 [Compound 262, N-(4,4-difluorocyclohexyl)-6-(5,6-dihydro-2H-pyran-3-yl)-2-(3,5-dimethyl-1H-pyrazol-1-yl)pyrimidin-4-amine] | ++ (++ means 200 nM-1000 nM)
3 | COC(=O)N1CC(Oc2cc(NC3CCC(F)(F)CC3)nc(-n3cc(C)c(C(F)F)n3)n2)C1 [Compound 318, methyl 3-((6-((4,4-difluorocyclohexyl)amino)-2-(3-(difluoromethyl)-4-methyl-1H-pyrazol-1-yl)pyrimidin-4-yl)oxy)azetidine-1-carboxylate] | ++ (++ means 200 nM-1000 nM)
4 | Cc1cc(C)n(-c2nc(NC3CCC(F)(F)CC3)cc(OCc3cnn(C)n3)n2)n1 [Compound 191, N-(4,4-difluorocyclohexyl)-2-(3,5-dimethyl-1H-pyrazol-1-yl)-6-((2-methyl-2H-1,2,3-triazol-4-yl)methoxy)pyrimidin-4-amine] | ++ (++ means 200 nM-1000 nM)
5 | Cc1cc(C)n(-c2nc(NC3CCC(F)(F)CC3)cc(OCc3cnnn3C)n2)n1 [Compound 189, N-(4,4-difluorocyclohexyl)-2-(3,5-dimethyl-1H-pyrazol-1-yl)-6-((1-methyl-1H-1,2,3-triazol-5-yl)methoxy)pyrimidin-4-amine] | +++ (+++ means <200 nM)
6 | Cc1cc(C)n(-c2nc3c(c(NC4CCC(F)(F)CC4)n2)CCN(CC#N)C3)n1 [Compound 122, 2-(4-((4,4-difluorocyclohexyl)amino)-2-(3,5-dimethyl-1H-pyrazol-1-yl)-5,8-dihydropyrido [3,4-d]pyrimidin-7(6H)-yl)acetonitrile] | + (+ means >1 uM)
7 | Cc1cc(C)n(-c2nc(NC3CCC(F)(F)CC3)cc([C@H]3COCC[C@H]3O)n2)n1 (relative stereo) [Compound 257, (−)-3-(6-((4,4-difluorocyclohexyl)amino)-2-(3,5-dimethyl-1H-pyrazol-1-yl)pyrimidin-4-yl)tetrahydro-2H-pyran-4-ol] | + (+ means >1 uM)
8 | Cc1cc(C)n(-c2nc(NC3CCC(F)(F)CC3)cc(-n3cccn3)n2)n1 [Compound 117, N-(4,4-difluorocyclohexyl)-2-(3,5-dimethyl-1H-pyrazol-1-yl)-6-(1H-pyrazol-1-yl)pyrimidin-4-amine] | ++ (++ means 200 nM-1000 nM)
9 | Cc1cc(NC2CCC(F)(F)CC2)nc(-c2nc(C(F)(F)F)cs2)n1 [Compound 269, N-(4,4-difluorocyclohexyl)-6-methyl-2-(4-(trifluoromethyl)thiazol-2-yl)pyrimidin-4-amine] | + (+ means >1 uM)
10 | FCc1csc(-c2nc(NC3CCC(F)(F)CC3)cc(N3CCOCC3)n2)n1 [Compound 336, N-(4,4-difluorocyclohexyl)-2-(4-(fluoromethyl)thiazol-2-yl)-6-morpholinopyrimidin-4-amine] | ++ (++ means 200 nM-1000 nM)
11 | CC(C)C(=O)NCc1cc(NC2CCC(F)(F)CC2)nc(-n2ccc(CF)n2)c1 [Compound 348, N-((2-((4,4-difluorocyclohexyl)amino)-6-(3-(fluoromethyl)-1H-pyrazol-1-yl)pyridin-4-yl)methyl)isobutyramide] | ++ (++ means 200 nM-1000 nM)
12 | CC(=O)NCc1cc(NC2CCC(F)(F)CC2)nc(-n2ccc(CF)n2)n1 [Compound 327, N-((6-((4,4-difluorocyclohexyl)amino)-2-(3-(fluoromethyl)-1H-pyrazol-1-yl)pyrimidin-4-yl)methyl)acetamide] | + (+ means >1 uM)

same assay, conditions: whole-cell patch-clamp, HEK293 cells expressing SK2 channels; concentration that increases the basal current by 100%

Row | SMILES | SC100 (μM)
13 | COc1cc(NC2CCCCC2)nc(-n2nc(C)cc2C)n1 [IN11055-044-P1] | + (+ means >1 uM)
14 | FC1(F)CCC(Nc2ccnc(-n3ccc(C4CC4)n3)n2)CC1 [NSSy6941, 2-(3-cyclopropyl-1H-pyrazol-1-yl)-N-(4,4-difluorocyclohexyl)pyrimidin-4-amine] | + (+ means >1 uM)
15 | Cc1ccn(-c2cc3ccccc3c(NC3CCC(F)(F)CC3)n2)n1 [IN11039-023-P1, N-(4,4-difluorocyclohexyl)-3-(3-methyl-1H-pyrazol-1-yl)isoquinolin-1-amine] | + (+ means >1 uM)
16 | Cc1ccn(-c2nc(NC3CCC(F)(F)CC3)cc(N3CCS(=O)(=O)CC3)n2)n1 [NSSy6111] | ++ (++ means 200 nM-1000 nM)
17 | Cc1csc(-c2cc(N(C)C)cc(NC3CCC(F)(F)CC3)n2)n1 | ++ (++ means 200 nM-1000 nM)
18 | CC(=O)NCc1cc(NC2CCC(F)(F)CC2)nc(-n2cc(C)c(CF)n2)c1 [NSSy5622, N-((2-((4,4-difluorocyclohexyl)amino)-6-(3-(fluoromethyl)-4-methyl-1H-pyrazol-1-yl)pyridin-4-yl)methyl)acetamide] | ++ (++ means 200 nM-1000 nM)
19 | COCC1CN(c2cc(NC3CCCCC3)nc(-c3nc(C)cs3)n2)CCO1 (stereo not drawn) [NSSy6100] | ++ (++ means 200 nM-1000 nM)
20 | Cc1ccc(-c2nc(NC3CCC(F)(F)CC3)cc(N3CCOCC3)n2)[nH]1 [IN11196-081-P1, N-(4,4-difluorocyclohexyl)-2-(5-methyl-1H-pyrrol-2-yl)-6-morpholino pyrimidin-4-amine] | + (+ means >1 uM)
21 | Cc1csc(-c2nc(NC3CCC(F)(F)CC3)cc(N3CCOCC3CO)n2)n1 (stereo not drawn) [IN10881-027-P1] | ++ (++ means 200 nM-1000 nM)
22 | Cc1csc(-c2nc(NC3CCC(F)(F)CC3)cc(OCc3ncnn3C)n2)n1 [NSSy5689] | + (+ means >1 uM)
23 | Cc1ccn(-c2cc(C#N)cc(NC3CCC(F)(F)CC3)n2)n1 [NSSy5826] | ++ (++ means 200 nM-1000 nM)
24 | Cc1ccn(-c2nc(NC3CCC(F)(F)CC3)cc(OCc3ncco3)n2)n1 [IN11053-022-P1] | + (+ means >1 uM)
25 | C=Cc1cc(NC2CCC(F)(F)CC2)nc(-n2ccc(C)n2)n1 [IN11053-052-P1] | ++ (++ means 200 nM-1000 nM)
26 | Cc1csc(-c2nc(NC3CCC(F)(F)CC3)cc(N3CCN(C)CC3)n2)n1 [IN10880-014-P1] | ++ (++ means 200 nM-1000 nM)
27 | Cc1ccn(-c2nc(NC3CC=CCC3)cc(OC3CN(C(=O)C(C)C)C3)n2)n1 (stereo not drawn) [NSSy5762] | ++ (++ means 200 nM-1000 nM)
28 | COc1cc(NC2CCC(F)(F)CC2)nc(-c2nc(C)cs2)c1 [IN11146-013-P1] | ++ (++ means 200 nM-1000 nM)
29 | Cc1csc(-c2nc(NC3CCC(F)(F)CC3)cc(N3C[C@@H]4C[C@H]3CO4)n2)n1 [NSSy6171] | ++ (++ means 200 nM-1000 nM)
30 | Cc1ccn(-c2cc(CO)cc(NC3CCC(F)(F)CC3)n2)n1 [NSSy5827] | ++ (++ means 200 nM-1000 nM)
31 | COC(=O)N1CC(Oc2cc(N3CC4(CCCCC4)C3)nc(-c3nc(C)cs3)n2)C1 [NSSy6126] | + (+ means >1 uM)
32 | COc1cc(-n2ccc(C)n2)nc(NC2CCC(F)(F)CC2)n1 [NSSy6574] | + (+ means >1 uM)
33 | Cc1ccn(-c2cc(C#N)nc(NC3CCC(F)(F)CC3)n2)n1 [NSSy6722, 2-((4,4-difluorocyclohexyl)amino)-6-(3-methyl-1H-pyrazol-1-yl)pyrimidine-4-carbonitrile] | + (+ means >1 uM)
